{"source": "patent US20120083464A1", "about": "“NEUROPROTECTIVE PROPERTIES OF 5'-METHYLTHIOADENOSINE” (priority 2009, published 2012)", "key": {"[1]": {"test_system": "oligodendrocytes derived from the optic nerve", "assay": "MTA toxicity profile in cultured oligodendrocytes (calcein-AM)", "type": "cell-based", "settings": "MTA 1 μM-3 mM for 24 hours", "experimental": "Primary cultures of oligodendrocytes derived from optic nerves of 12-d-old Sprague Dawley rats were obtained as described previously (Barres et al., 1992). Cells were seeded into 24-well plates bearing 12-mm-diameter coverslips coated with poly-D-lysine (10 μg/ml) at a density of 5×10^3 cells per well. Cells were maintained at 37° C. and 5% CO2 in a chemically defined medium (Barres et al., 1992, Cell 70:31-46). After 2-4 d in vitro, cultures were composed of at least 98% O4/galactocerebroside-positive (O4/Ga1C_) cells; the majority of the remaining cells were stained with antibodies to glial fibrillary acidic protein (GFAP). No A2B5+ or microglial cells were detected in these cultures (Alberdi et al., 2002, Neurobiol Dis 9:234-243).\nCell toxicity and viability assays were performed as described previously (Sánchez-Gómez and Matute, 1999, Neurobiol Dis 6:475-485). For evaluating the MTA toxicity, cells at 2-4 d in culture were exposed for 24 hours to that drug and cell viability assessed using calcein-AM (Invitrogen). […] Twenty-four hours after drug application, cell viability was assessed using calcein-AM (Invitrogen). The total number of surviving cells on each coverslip emitting calcein fluorescence was counted, and results were expressed as percentage of cell death versus control. Results were expressed as the mean±SEM of at least three independent experiments performed in duplicate. […]"}, "[2]": {"test_system": "pure rat cortical neuronal culture", "assay": "NMDA-mediated toxicity (LDH release) in pure neuronal culture", "type": "cell-based, Sprague-Dawley rat", "settings": "NMDA 300 μM, MTA 100 to 500 μM", "experimental": "Primary cultures of brain cortical neurons were essentially prepared as described previously (Bruno et al., 2001, Eur. J. Neurosci., 13:1469-1478). The fronto-lateral cortical lobes were dissected out of Sprague-Dawley embryonic day 17 foetuses and were mechanically dissociated in Hanks' balanced solution. The cortical lobes were triturated by aspirating 7-10 times using a Pasteur pipette with a flame-narrowed tip. After centrifugation at 800 g for 5 min, cells were resuspended in serum-free Neurobasal medium (GIBCO) supplemented with B27 (GIBCO) containing 2 mM L-glutamine, penicillin (20 units/ml) and streptomycin (5 μg/ml) and plated on poly-L-lysine-coated 24-well culture plates or on poly-L-lysine-coated 6-well culture plates. […]\nFor viability experiments, cortical neurons or mixed cortical neurons and glia, seeded onto 24-well plates at 15×10^4 cells/well and cultured for 7 DIV, were treated with vehicle (DMSO 1‰), NMDA (300 μM), NMDA (300 μM)+MTA (at different concentrations) or NMDA (300 μM)+MK-801 (10 μM) for 6 h and 24 h. […] Lactate dehydrogenase (LDH) activity was measured as an index of cellular death and mortality was expressed as percentage of LDH released to culture media. LDH was measured spectrophotometrically at 490 nm on a 96-well plate reader by using the Cytotox 96 Kit according to the manufacturer instructions (Promega). […]"}, "[3]": {"test_system": "caspase 3 activity", "assay": "NMDA-mediated increase in caspase 3 activity in mixed neuronal-glial culture", "type": "cell-based, Sprague-Dawley rat", "settings": "NMDA 300 μM, MTA 250 μM or MK-801 10 μM", "experimental": "Primary cultures of brain cortical neurons and glia were essentially prepared as described previously (Bruno et al., 2001, Eur. J. Neurosci., 13:1469-1478). The fronto-lateral cortical lobes were dissected out of Sprague-Dawley embryonic day 17 foetuses and were mechanically dissociated in Hanks' balanced solution. The cortical lobes were triturated by aspirating 7-10 times using a Pasteur pipette with a flame-narrowed tip. […]\nCortical neurons or mixed cortical neurons and glia were plated on poly-L-lysine-coated 6-well culture plates and after 7 DIV, cells were treated with vehicle or NMDA (300 μM) for different periods of time. […] Extracts were then centrifuged at 5,000×g for 10 min at 4° C., and protein content was determined by using the BCA protein assay according to the manufacturer instructions. Cell extracts (40 μg of protein) were incubated in reaction buffer (25 mM Hepes, 10% sucrose, 0.1% CHAPS, 10 mM DTT) containing 50 μM fluorescence substrate Z-DEVD-AFC at 37° C. for 1 h. Cleavage of the AFC fluorophore was determined in a spectrofluorometer at excitation wavelength of 400 nm and fluorescence was detected at an emission wavelength of 505 nm. Caspase 3 activity was expressed as units of fluorescence/mg of protein/h (Posadas et al., 2009, Pharm. Res., In press)."}}, "note": "“Also recorded” adds a separate entry of the source."}
{"smiles": "CSC[C@H]1O[C@@H](n2cnc3c(N)ncnc32)[C@H](O)[C@@H]1O", "note": "[MTA, 5′-methylthioadenosine]", "values": [{"measurement": "MTA concentrations at which significant toxicity was observed (calcein-AM)", "setting": "[1]", "value": "above 300 μM"}, {"measurement": "effect on NMDA-mediated toxicity (LDH release)", "setting": "[2]", "value": "no neuroprotective effect; also recorded: Lack of effect"}, {"measurement": "protection against NMDA-induced caspase 3 activity", "setting": "[3]", "value": "blockade of caspase 3 activation; also recorded: protection"}]}
